Data published in ChEMBL document CHEMBL5647690, “Inhibition of demethylases by GSK-J1/J4” (Nature, 2014).

How the values were obtained:
[1] = target: T1, Lysine-specific demethylase 2B (Homo sapiens, UniProt Q8NHM5); assay: Inhibition of KDM2B (1 to 650 residues)(unknown origin) by Alphalisa assay
T1 sequence (Q8NHM5 whole entry): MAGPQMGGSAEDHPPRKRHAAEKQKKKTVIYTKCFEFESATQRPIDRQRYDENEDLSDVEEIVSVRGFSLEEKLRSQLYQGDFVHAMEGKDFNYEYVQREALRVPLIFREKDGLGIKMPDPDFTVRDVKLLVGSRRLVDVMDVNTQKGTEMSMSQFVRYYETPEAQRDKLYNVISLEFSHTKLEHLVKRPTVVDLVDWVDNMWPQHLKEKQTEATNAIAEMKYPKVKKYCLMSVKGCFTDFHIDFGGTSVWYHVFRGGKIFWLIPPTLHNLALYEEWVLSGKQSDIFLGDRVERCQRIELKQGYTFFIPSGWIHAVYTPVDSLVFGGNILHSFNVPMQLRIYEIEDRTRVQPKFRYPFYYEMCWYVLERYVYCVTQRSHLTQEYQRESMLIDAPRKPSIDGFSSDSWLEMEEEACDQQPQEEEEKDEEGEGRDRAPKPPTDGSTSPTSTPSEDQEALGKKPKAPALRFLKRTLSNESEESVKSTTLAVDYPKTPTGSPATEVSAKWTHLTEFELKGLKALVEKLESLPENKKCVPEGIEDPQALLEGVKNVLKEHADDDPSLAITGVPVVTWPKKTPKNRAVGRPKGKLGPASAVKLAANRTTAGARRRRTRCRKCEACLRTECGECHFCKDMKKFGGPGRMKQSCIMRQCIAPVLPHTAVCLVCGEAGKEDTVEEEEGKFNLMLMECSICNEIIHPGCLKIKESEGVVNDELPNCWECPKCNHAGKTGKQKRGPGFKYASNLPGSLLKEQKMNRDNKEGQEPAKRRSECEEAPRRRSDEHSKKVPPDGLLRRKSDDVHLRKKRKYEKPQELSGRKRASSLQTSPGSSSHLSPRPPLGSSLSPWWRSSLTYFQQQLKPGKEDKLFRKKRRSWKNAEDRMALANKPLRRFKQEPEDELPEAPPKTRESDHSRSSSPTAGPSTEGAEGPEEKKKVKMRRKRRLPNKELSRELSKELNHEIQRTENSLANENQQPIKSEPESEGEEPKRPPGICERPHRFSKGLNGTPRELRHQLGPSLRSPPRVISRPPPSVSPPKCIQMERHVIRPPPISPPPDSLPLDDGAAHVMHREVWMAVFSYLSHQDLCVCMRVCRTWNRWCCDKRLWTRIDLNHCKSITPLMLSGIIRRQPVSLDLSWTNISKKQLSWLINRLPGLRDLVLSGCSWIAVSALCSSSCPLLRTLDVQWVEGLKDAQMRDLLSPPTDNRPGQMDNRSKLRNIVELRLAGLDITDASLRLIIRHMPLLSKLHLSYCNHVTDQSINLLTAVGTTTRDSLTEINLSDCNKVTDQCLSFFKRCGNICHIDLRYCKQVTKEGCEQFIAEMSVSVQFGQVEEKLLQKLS

[2] = target: Lysine-specific demethylase 5A (Homo sapiens, UniProt P29375); assay: Inhibition of KDM5A (1 to 1090 residues)(unknown origin) by Alphalisa assay
Sequence of Lysine-specific demethylase 5A (P29375 whole entry, the tested form may be a part): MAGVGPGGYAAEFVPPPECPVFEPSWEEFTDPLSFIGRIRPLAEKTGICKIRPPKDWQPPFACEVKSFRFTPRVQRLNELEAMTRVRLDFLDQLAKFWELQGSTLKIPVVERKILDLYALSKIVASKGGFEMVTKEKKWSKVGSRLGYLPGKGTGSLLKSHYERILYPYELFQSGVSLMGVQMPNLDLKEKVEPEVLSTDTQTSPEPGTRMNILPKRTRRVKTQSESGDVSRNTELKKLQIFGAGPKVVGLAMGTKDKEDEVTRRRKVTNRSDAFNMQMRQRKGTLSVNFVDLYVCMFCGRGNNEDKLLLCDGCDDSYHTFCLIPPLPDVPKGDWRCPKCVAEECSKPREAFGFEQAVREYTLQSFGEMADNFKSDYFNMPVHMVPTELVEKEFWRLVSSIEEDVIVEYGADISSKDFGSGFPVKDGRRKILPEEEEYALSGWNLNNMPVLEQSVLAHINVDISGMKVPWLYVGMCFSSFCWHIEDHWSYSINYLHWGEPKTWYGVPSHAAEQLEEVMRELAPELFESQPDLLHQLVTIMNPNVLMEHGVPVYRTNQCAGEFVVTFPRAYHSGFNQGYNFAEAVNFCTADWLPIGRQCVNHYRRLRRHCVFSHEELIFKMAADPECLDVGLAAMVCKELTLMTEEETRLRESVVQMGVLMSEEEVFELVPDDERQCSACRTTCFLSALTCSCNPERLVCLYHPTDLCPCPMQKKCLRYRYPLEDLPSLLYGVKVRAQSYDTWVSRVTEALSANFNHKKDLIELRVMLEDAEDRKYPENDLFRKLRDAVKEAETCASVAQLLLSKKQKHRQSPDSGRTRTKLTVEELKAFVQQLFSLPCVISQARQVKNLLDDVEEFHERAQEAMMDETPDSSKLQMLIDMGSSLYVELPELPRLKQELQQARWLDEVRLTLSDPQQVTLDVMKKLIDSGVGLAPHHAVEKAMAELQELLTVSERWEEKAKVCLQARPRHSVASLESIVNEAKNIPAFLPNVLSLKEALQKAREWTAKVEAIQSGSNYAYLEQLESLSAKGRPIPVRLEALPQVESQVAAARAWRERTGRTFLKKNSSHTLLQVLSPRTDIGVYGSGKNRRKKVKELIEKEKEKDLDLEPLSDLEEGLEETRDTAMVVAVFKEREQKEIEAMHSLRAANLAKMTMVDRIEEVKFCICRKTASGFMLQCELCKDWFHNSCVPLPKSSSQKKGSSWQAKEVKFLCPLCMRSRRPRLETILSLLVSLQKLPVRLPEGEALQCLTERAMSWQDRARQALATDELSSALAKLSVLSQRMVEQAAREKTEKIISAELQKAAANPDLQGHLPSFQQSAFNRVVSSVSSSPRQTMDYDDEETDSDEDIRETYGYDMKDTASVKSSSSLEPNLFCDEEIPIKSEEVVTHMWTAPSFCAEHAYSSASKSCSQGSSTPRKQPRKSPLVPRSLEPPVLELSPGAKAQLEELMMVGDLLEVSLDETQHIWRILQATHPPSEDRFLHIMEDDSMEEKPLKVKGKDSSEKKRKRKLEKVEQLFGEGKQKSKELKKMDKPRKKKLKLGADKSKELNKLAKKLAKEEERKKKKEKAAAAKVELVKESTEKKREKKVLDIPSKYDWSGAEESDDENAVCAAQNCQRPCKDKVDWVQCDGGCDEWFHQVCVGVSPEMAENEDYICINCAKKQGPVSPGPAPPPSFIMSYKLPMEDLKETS

[3] = target: Lysine-specific demethylase 5B (Homo sapiens, UniProt Q9UGL1); assay: Inhibition of KDM5B (1 to 809 residues)(unknown origin) by Alphalisa assay
Sequence of Lysine-specific demethylase 5B (Q9UGL1 whole entry, the tested form may be a part): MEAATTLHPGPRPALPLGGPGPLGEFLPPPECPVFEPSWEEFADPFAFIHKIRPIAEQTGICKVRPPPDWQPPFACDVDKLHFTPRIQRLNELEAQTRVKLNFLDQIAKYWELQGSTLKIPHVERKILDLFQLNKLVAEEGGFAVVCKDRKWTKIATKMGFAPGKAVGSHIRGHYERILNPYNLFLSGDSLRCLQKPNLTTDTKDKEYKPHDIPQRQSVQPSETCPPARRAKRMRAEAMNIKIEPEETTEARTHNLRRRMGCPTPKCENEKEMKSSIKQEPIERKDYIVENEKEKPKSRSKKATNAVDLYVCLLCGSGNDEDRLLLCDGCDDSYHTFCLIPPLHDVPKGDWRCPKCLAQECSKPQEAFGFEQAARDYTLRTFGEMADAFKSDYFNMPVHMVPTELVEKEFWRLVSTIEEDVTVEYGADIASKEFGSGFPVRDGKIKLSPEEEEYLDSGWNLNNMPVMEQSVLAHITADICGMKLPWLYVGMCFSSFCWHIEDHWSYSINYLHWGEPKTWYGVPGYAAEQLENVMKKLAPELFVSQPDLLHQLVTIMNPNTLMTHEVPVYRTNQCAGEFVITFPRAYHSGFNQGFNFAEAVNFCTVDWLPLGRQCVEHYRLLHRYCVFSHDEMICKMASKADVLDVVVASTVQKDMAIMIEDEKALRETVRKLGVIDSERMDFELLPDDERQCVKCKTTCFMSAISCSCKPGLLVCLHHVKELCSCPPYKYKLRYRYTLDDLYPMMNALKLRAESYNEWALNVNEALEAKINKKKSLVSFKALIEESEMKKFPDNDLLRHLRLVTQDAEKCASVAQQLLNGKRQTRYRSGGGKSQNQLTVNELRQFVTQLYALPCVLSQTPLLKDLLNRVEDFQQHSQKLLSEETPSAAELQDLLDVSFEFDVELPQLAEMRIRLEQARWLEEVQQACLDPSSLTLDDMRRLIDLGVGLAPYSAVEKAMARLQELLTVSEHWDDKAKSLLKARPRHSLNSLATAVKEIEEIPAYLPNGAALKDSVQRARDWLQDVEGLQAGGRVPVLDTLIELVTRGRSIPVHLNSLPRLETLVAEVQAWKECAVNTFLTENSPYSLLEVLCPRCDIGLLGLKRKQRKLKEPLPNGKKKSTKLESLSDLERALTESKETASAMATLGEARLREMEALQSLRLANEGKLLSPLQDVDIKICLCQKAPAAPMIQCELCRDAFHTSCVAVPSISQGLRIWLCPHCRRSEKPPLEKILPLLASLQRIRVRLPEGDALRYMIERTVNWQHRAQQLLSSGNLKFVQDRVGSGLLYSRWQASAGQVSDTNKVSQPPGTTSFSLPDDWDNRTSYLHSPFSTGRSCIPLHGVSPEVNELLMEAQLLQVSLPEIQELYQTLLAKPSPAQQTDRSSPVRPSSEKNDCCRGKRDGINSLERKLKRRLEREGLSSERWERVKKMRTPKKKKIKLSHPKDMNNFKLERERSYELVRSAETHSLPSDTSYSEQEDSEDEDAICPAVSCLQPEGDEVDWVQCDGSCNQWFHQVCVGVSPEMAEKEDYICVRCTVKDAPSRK

[4] = target: Lysine-specific demethylase 5C (Homo sapiens, UniProt P41229); assay: Inhibition of KDM5C (2 to 1560 residues)(unknown origin) by Alphalisa assay
[5] = target: Histone lysine demethylase PHF8 (Homo sapiens, UniProt Q9UPP1); assay: Inhibition of PHF8 (1 to 1024 residues)(unknown origin) by Alphalisa assay
Sequence of Histone lysine demethylase PHF8 (Q9UPP1 whole entry, the tested form may be a part): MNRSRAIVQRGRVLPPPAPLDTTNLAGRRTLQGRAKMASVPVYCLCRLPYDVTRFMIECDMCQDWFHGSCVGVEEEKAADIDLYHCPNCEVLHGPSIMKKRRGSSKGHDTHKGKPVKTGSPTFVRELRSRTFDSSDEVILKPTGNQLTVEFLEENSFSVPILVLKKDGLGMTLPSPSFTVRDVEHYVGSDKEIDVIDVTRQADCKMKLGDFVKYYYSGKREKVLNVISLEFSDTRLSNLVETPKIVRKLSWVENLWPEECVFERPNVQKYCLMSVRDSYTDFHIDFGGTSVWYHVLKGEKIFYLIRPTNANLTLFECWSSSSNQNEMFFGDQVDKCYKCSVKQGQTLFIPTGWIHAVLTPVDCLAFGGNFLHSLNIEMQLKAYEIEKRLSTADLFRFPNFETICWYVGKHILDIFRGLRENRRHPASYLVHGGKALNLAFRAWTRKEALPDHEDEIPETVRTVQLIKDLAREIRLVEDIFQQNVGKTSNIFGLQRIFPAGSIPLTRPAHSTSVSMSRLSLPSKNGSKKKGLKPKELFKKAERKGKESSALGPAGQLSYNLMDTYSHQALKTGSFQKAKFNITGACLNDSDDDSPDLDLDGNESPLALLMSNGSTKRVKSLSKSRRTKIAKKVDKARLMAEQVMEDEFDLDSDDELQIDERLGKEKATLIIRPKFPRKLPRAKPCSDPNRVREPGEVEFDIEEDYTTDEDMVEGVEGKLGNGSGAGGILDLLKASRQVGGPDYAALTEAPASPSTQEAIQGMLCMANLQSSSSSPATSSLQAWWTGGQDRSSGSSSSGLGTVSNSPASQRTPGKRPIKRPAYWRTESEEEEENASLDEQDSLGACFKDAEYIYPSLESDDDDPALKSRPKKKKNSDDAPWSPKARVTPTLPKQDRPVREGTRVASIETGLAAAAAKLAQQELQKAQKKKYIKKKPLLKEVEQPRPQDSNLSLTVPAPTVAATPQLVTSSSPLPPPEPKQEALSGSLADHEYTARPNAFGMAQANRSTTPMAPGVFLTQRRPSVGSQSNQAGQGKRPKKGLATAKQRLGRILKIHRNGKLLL

IC50 [1]	IC50 [2]	IC50 [3]	IC50 [4]	IC50 [5]	Structure (SMILES)
8.3 µM	> 20 µM	33 µM	> 75 µM	17 µM	O=C(O)CCNc1cc(N2CCc3ccccc3CC2)nc(-c2cccnc2)n1
24 µM	> 50 µM	> 25 µM	–	> 25 µM	CCOC(=O)CCNc1cc(N2CCc3ccccc3CC2)nc(-c2cccnc2)n1
